Results: patent US12318365B2, “Inhibition of dipeptide repeat proteins” (ALS Therapy Development Institute, priority 2019, dated 2025)
No end group written: not given here.

Assays:
[1] = biological target: T1, Recombinant PRMT1 protein (Homo sapiens, UniProt Q99873); experiment: In-vitro arginine methylation assay with recombinant PRMT1 and SAM; type: biochemical; settings: 37 degrees Celsius, 2 hours, no methylation without PRMT1 or SAM
T1 construct: purchased Active Motif 31411
Method: To assess interaction between PRMT1 and GR15, (SEQ ID NO: 1) an in-vitro methylation assay system was developed. This system consists of a mixture of recombinant PRMT1 enzyme, S-(5′-Adenosyl)-L-methionine iodide, (SAM) as a methyl donor, and potential substrate of PRMT1 activity. For this experiment, 11 tubes were prepared, each containing various amount of the following components; • Recombinant PRMT1 protein (Active Motif, Cat. 31411) • S-(5′-Adenosyl)-L-methionine iodide, (SAM) (Sigma-Aldrich Cat. A4377) • GR15(SEQ ID NO: 1) • PR15(SEQ ID NO: 2) • SOD1 from human erythrocytes (S9636-1KU)
These constituents were mixed in a 0.5 ml flat-capped tubes (Thermo Fisher Scientific, AB0350) according to Table 4 (all values are in microliters (μl)).
Once all tubes were prepared, each tube was gently tapped to ensure mixture, and the tubes were placed in an incubator at 37 degrees Celsius for 2 hours. After 2 hours, the reaction mixture was stopped with the addition of 10 μl of NuPage LDS Sample Buffer (Thermo Fisher Scientific, NP0007). The tubes were gently tapped to ensure mixture, and then boiled for 5 minutes in a 95 degrees Celsius water bath. […]
The gel was then transferred using the iBlot apparatus and an iBlot 2 Nitrocellulose Mini Stack (Thermo Fisher Scientific, IB23002). […] Following wash steps, the membrane was read on the LI-COR Odyssey Classic Imaging System.

[2] = test system: asymmetrical arginine methylation of NSC-34 cells; experiment: Cellular asymmetric arginine methylation (800/700 fluorescence readout) in NSC-34 cells; type: cell-based, Mouse
Method: On Day 0, NSC-34 Cells were plated in 48 wells of a 96 well plate, and CHO cells were plated in the other 48 wells of the same 96-well plate. NSC-34 cells were plated in DMEM/High glucose media. CHO cells were plated in Ham's F-12K (Kaighn's) Medium. Both cell lines were incubated overnight to reach approximately 50% confluency.
On Day 1, 24 wells of the NSC-34 cells and 24 wells of the CHO cells were treated with the following concentrations of MS023: 1 μM, 3 μM, 6 μM, 10 μM, 30 μM, and 60 μM. The cells were then incubated overnight.
On Day 2, 18 wells of the untreated NSC-34 cells and 18 wells of the untreated CHO cells were treated with the same concentrations of MS023 as those on Day 1. This left 6 wells of each cell line that never received MS023. Once MS023 was added, the cells were incubated overnight.
On Day 3, all media in the 96-well plate was removed and the cells were fixed with 3.7% Paraformaldehyde (PFA). Cells were then washed and permeabilized with 1×PBS/0.1% Triton X-100.
After removing the PBS/Triton wash, Odyssey Blocking Buffer (LI-COR, 927-40100) was applied to all wells and the plate sat at room temperature with moderate shaking for 90 minutes. After 90 minutes, the blocking buffer was removed and the cells were treated with a 1:500 dilution of the Anti-Asymmetric Di-Methyl Arginine Motif primary antibody (Cell Signaling Technology, #13522). Incubation with the primary antibody continued overnight at 4 degrees Celsius with no shaking.
On Day 4, the primary antibody solution was removed from the plate, and the cells were washed with 1×PBS/0.1% Tween 20. After washing, cells were given a secondary antibody mixture containing a 1:1000 dilution of IRDye 800 CW Anti-Rabbit antibody (LI-COR, 926-32211) and a 1:500 dilution of Cell Tag 700 Stain (LI-COR, 926-41090). The secondary antibody mixture remained on cells for 60 minutes with gentle shaking and protected from light.
(§1) After 60 minutes, the secondary antibody mixture was removed and the cells were again washed with 1×PBS/0.1% Tween 20. All wash buffer was then removed, and the plate was gently patted dry to remove excess solution. The plate was then read on the LI-COR Odyssey Classic Imaging System which provides results based on fluorescence. In this experiment, fluorescence occurred as a result of cellular, asymmetric arginine methylation. MS023 was given to cells for either 24 or 48 hours, with expectation for it to reduce cellular, asymmetric arginine methylation. Cell number per well was accounted for using the Cell Tag 700 Stain, which fluorescently labels total protein levels in a cell. To this effect, fluorescence from asymmetrical arginine methylation per well (800) was divided by fluorescence from the total protein level per well (700) to produce an outcome of 800/700.
On Day 1, 24 wells of the NSC-34 cells and 24 wells of the CHO cells were treated with the following concentrations of MS049: 0.2 μM, 1 μM, 2 μM, 10 μM, 20 μM, and 100 μM. The cells were then incubated overnight.
On Day 2, 18 wells of the untreated NSC-34 cells and 18 wells of the untreated CHO cells were treated with the same concentrations of MS049 as those on Day 1. This left 6 wells of each cell line that never received MS049. Once MS049 was added, the cells were incubated overnight.
as §1, with “MS049” for “MS023”, “To this effect, fluorescence from asymmetrical arginine methylation per well (800) was divided by fluorescence from the total protein level per well (700) to produce an outcome of 800/700.” left out

T1 sequence (Q99873 whole entry): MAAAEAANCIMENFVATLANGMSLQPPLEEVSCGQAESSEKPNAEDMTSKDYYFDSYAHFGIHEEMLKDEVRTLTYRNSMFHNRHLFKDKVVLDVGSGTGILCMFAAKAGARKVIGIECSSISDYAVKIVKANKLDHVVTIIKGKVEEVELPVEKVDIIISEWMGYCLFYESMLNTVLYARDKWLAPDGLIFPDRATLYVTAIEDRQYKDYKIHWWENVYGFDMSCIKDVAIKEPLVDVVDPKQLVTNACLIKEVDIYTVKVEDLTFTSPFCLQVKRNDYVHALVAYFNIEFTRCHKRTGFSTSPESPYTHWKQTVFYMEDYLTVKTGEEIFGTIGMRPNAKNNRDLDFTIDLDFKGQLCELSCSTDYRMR

Compound	asymmetric methylation of the peptide as substrate (anti-H4R3me2a detection) [1]	decrease of asymmetrical arginine methylation ([2]; 24 hour treatment, 1 μM, vs untreated cells)	decrease of asymmetrical arginine methylation ([2]; 24 hour treatment, 60 μM) [%]	decrease of asymmetrical arginine methylation ([2]; 48 hour treatment, 1 μM) [%]	decrease of asymmetrical arginine methylation ([2]; 48 hour treatment, 60 μM) [%]
GRGRGRGRGRGRGRGRGRGRGRGRGRGRGR [GR15]	is asymmetrically methylated by PRMT1	–	–	–	–
CC(C)Oc1ccc(-c2c[nH]cc2CN(C)CCN)cc1 [MS023]	–	approximately 13%	~45	~33	~75
